From the supplement of paper PMC10307832

How the values were obtained:
Test in all cases: relative viability (nuclei count vs DMSO), 5 days (fraction); higher = more cells survive
IMD-0354 + Olaparib = compound: O=C(Nc1cc(C(F)(F)F)cc(C(F)(F)F)c1)c1cc(Cl)ccc1O [IMD-0354] + O=C(c1cc(Cc2n[nH]c(=O)c3ccccc23)ccc1F)N1CCN(C(=O)C2CC2)CC1 [Olaparib] (partner 8 µM)
In short: (§1)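 After 5 days of treatment, lung cancer cells in 1536-well plates were fixed and stained in a single step (final 0.05% Triton X-100, 1% formaldehyde, 1 ug/ml Hoechst) and their nuclei counted on 4× images. Treatment had been applied by pin tool the day after seeding as one drug alone or as a fixed anchor-drug dose with five library-drug doses (not always all listed) in √10 steps. Relative viability is the nuclei count of treated wells divided by that of vehicle wells, and values are medians of duplicate plates.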

CX-5461 + Palbociclib = compound: Cc1cnc(CNC(=O)c2c(=O)c3ccc(N4CCCN(C)CC4)nc3n3c2sc2ccccc23)cn1 [CX-5461] + CC(=O)c1c(C)c2cnc(Nc3ccc(N4CCNCC4)cn3)nc2n(C2CCCC2)c1=O [Palbociclib] (partner 0.5 µM)
In short: as §1

IMD-0354 + Palbociclib = compound: O=C(Nc1cc(C(F)(F)F)cc(C(F)(F)F)c1)c1cc(Cl)ccc1O [IMD-0354] + CC(=O)c1c(C)c2cnc(Nc3ccc(N4CCNCC4)cn3)nc2n(C2CCCC2)c1=O [Palbociclib] (partner 0.5 µM)
In short: as §1

IMD-0354 + Pictilisib = compound: O=C(Nc1cc(C(F)(F)F)cc(C(F)(F)F)c1)c1cc(Cl)ccc1O [IMD-0354] + CS(=O)(=O)N1CCN(Cc2cc3nc(-c4cccc5[nH]ncc45)nc(N4CCOCC4)c3s2)CC1 [Pictilisib] (partner 1 µM)
In short: as §1

Cell Line	relative viability (IMD-0354 + Olaparib; first compound 0.04 µM)	relative viability (IMD-0354 + Olaparib; first compound 0.1265 µM)	relative viability (IMD-0354 + Olaparib; first compound 0.4 µM)	relative viability (IMD-0354 + Olaparib; first compound 1.265 µM)	relative viability (IMD-0354 + Olaparib; first compound 4 µM)	relative viability (CX-5461 + Palbociclib; first compound 0.01 µM)	relative viability (CX-5461 + Palbociclib; first compound 0.03162 µM)	relative viability (CX-5461 + Palbociclib; first compound 0.1 µM)	relative viability (CX-5461 + Palbociclib; first compound 0.3162 µM)	relative viability (CX-5461 + Palbociclib; first compound 1 µM)	relative viability (IMD-0354 + Palbociclib; first compound 0.04 µM)	relative viability (IMD-0354 + Palbociclib; first compound 0.1265 µM)	relative viability (IMD-0354 + Palbociclib; first compound 0.4 µM)	relative viability (IMD-0354 + Palbociclib; first compound 1.265 µM)	relative viability (IMD-0354 + Palbociclib; first compound 4 µM)	relative viability (IMD-0354 + Pictilisib; first compound 0.04 µM)	relative viability (IMD-0354 + Pictilisib; first compound 0.1265 µM)	relative viability (IMD-0354 + Pictilisib; first compound 0.4 µM)	relative viability (IMD-0354 + Pictilisib; first compound 1.265 µM)	relative viability (IMD-0354 + Pictilisib; first compound 4 µM)
NCI-H838	0.778	0.73	0.426	0.253	0.302	0.231	0.23	0.224	0.212	0.253	0.223	0.23	0.178	0.186	0.151	0.559	0.458	0.377	0.247	0.26
NCI-H1355	0.663	0.769	0.452	0.198	0.175	0.424	0.467	0.41	0.417	0.388	0.385	0.41	0.378	0.195	0.253	0.619	0.404	0.327	0.196	0.206
NCI-H1395	0.449	0.464	0.466	0.361	0.337	0.624	0.599	0.586	0.572	0.498	0.679	0.682	0.656	0.397	0.418	0.592	0.589	0.555	0.346	0.348
NCI-H1437	0.669	0.574	0.376	0.218	0.232	0.278	0.328	0.346	0.308	0.279	0.338	0.29	0.166	0.141	0.162	0.492	0.381	0.442	0.153	0.185
NCI-H1650	0.827	0.82	0.463	0.325	0.145	0.374	0.364	0.35	0.289	0.151	0.192	0.389	0.311	0.127	0.181	0.722	0.484	0.434	0.166	0.191
NCI-H1651	0.189	0.196	0.177	0.177	0.124	0.455	0.517	0.536	0.513	0.526	0.504	0.507	0.415	0.516	0.182	0.663	0.461	0.34	0.068	0.0829
NCI-H1666	0.752	0.748	0.857	0.703	0.562	0.63	0.624	0.678	0.626	0.572	0.737	0.616	0.601	0.57	0.495	0.308	0.434	0.295	0.176	0.201
NCI-H1734	0.608	0.68	0.465	0.421	0.175	0.325	0.391	0.34	0.317	0.292	0.352	0.352	0.314	0.232	0.196	0.495	0.51	0.339	0.209	0.143
